Measured values from patent US20090075983A1 (priority 2006, published 2009).

Assays:
[1] = molecular target: T1, α7-subtype of nicotinic receptors (Rattus norvegicus, UniProt Q05941); experiment: biochemical; details: read-out: Inhibition of 3H-α-Bungarotoxine Binding IC50
T1 construct: Cerebral cortices from male Wistar rats (150-250 g) are homogenised; from tissue; host or cells: rat cerebral cortex membrane homogenate
T1 sequence (Q05941 23-502): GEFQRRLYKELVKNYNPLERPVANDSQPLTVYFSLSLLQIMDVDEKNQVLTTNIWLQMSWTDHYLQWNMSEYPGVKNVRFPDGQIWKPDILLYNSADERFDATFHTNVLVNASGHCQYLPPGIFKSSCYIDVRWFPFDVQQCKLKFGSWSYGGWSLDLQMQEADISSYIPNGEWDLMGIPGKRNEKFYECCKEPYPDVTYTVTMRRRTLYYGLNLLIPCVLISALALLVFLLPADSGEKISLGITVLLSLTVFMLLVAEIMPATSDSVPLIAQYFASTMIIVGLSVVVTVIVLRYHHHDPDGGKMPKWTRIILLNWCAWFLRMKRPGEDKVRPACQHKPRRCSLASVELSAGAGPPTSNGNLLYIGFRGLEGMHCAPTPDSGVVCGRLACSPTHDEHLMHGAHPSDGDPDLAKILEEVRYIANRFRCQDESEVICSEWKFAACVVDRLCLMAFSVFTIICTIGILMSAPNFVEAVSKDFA

Row | Structure (SMILES) | IC50 [1] [nM] | melting point [°C]
1 | Cl.O=C(Nc1ccc(OC(=O)N2CCN3CCC2CC3)cc1)c1ccccc1 [Compound C1, 1,4-Diaza-bicyclo[3.2.2]nonane-4-carboxylic acid 4-benzoylamino-phenyl ester hydrochloric acid salt] | 560 | > 270
2 | O=C(O)/C=C/C(=O)O.O=C(Oc1ccc(C#Cc2ccccc2)cc1)N1CCN2CCC1CC2 [Compound A1, 1,4-Diaza-bicyclo[3.2.2]nonane-4-carboxylic acid 4-phenylethynyl-phenyl ester fumaric acid salt] | 420 | 160 to 177
